Data reported in patent publication US20090198069A1, “METAL COMPLEX, LIGHT-EMITTING DEVICE AND DISPLAY” (NAGASAKI UNIVERSITY, NATIONAL UNIVERSITY CORPORATI, priority 2005, published 2009).

Assay: Solubility in a solvent (qualitative)
Format: physicochemical
[1] = dichloromethane (methylene chloride)

| Compound | solubility in a solvent (chloroform) | solubility in a solvent [1] | solubility in a solvent (methanol) | solubility in a solvent (toluene) | solubility in a solvent (acetone) | solubility in a solvent (acetonitrile) | solubility in a solvent (benzene) | solubility in a solvent (diethyl ether) | solubility in a solvent (hexane) | solubility in a solvent (water) |
| --- | --- | --- | --- | --- | --- | --- | --- | --- | --- | --- |
| CC(C)(C)c1cc[n+]2[n]1[Cu-][n+]1c(C(C)(C)C)cc[n]1[Pt-2]13[n]4ccc(C(C)(C)C)[n+]4[Cu-][n]4c(C(C)(C)C)cc[n+]4[Pt-2]2([n]2ccc(C(C)(C)C)[n+]2[Cu-][n]2c(C(C)(C)C)cc[n+]21)[n]1ccc(C(C)(C)C)[n+]1[Cu-][n]1c(C(C)(C)C)cc[n+]13 [[Pt2Cu4(μ-3-^tBupz)8]] | soluble | soluble |  |  |  |  |  |  |  |  |
| CC(C)(C)c1ccn[nH]1.CC(C)(C)c1ccn[nH]1.CC(C)(C)c1ccn[nH]1.CC(C)(C)c1ccn[nH]1.[Cl-].[Cl-].[Pt+2] [[Pt(3-^tBupzH)4]Cl2] | readily soluble | readily soluble | soluble | soluble |  |  |  |  |  |  |
| CC(C)(C)c1cc[n+]2[n]1[Ag-][n+]1c(C(C)(C)C)cc[n]1[Pt-2]13[n]4ccc(C(C)(C)C)[n+]4[Ag-][n]4c(C(C)(C)C)cc[n+]4[Pt-2]2([n]2ccc(C(C)(C)C)[n+]2[Ag-][n]2c(C(C)(C)C)cc[n+]21)[n]1ccc(C(C)(C)C)[n+]1[Ag-][n]1c(C(C)(C)C)cc[n+]13 [[Pt2Ag4(μ-3-^tBupz)8]] | readily soluble | readily soluble |  |  |  |  |  |  |  |  |
| [Cl][Pt-2]([n]1nc(-c2ccccc2)cc1-c1ccccc1)([n+]1[nH]c(-c2ccccc2)cc1-c1ccccc1)[n+]1[nH]c(-c2ccccc2)cc1-c1ccccc1 [[PtCl(dppz)(dppzH)2]] | readily soluble | readily soluble |  | soluble | readily soluble | soluble | soluble |  |  |  |
| Cc1cc(C)[n+]2[n]1[Pt-2]13[n]4c(C)cc(C)[n+]4[Cu-][n]4c(C)cc(C)[n+]4[Pt-2]([n]4c(C)cc(C)[n+]4[Cu-][n]4c(C)cc(C)[n+]41)([n]1c(C)cc(C)[n+]1[Cu-][n]1c(C)cc(C)[n+]13)[n+]1c(C)cc(C)[n]1[Cu-]2 [[Pt2Cu4(μ-dmpz)8]] | soluble | soluble | poorly soluble | poorly soluble | slightly soluble | poorly soluble |  | slightly soluble |  |  |
| Cc1cc(C)[n+]2[n]1[Pt-2]13[n]4c(C)cc(C)[n+]4[Ag-][n]4c(C)cc(C)[n+]4[Pt-2]([n]4c(C)cc(C)[n+]4[Ag-][n]4c(C)cc(C)[n+]41)([n]1c(C)cc(C)[n+]1[Ag-][n]1c(C)cc(C)[n+]13)[n+]1c(C)cc(C)[n]1[Ag-]2 [[Pt2Ag4(μ-dmpz)8]] | extremely highly soluble | extremely highly soluble | not soluble | highly soluble | not soluble | moderately soluble | highly soluble |  | moderately soluble |  |
| CC(C)(C)c1cc[n-]n1.CC(C)(C)c1cc[n-]n1.CC(C)(C)c1cc[nH]n1.CC(C)(C)c1cc[nH]n1.[Pt+2] [[Pt(3-^tBupz)2(3-^tBupzH)2]] | readily soluble | readily soluble | soluble |  | soluble |  |  |  | soluble |  |
| Cc1ccn[n]1[Pt-2]([n]1nccc1C)([n+]1[nH]ccc1C)[n+]1[nH]ccc1C.Cc1ccn[n]1[Pt-2]([n]1nccc1C)([n+]1[nH]ccc1C)[n+]1[nH]ccc1C [[{Pt(3-Mepz)2(3-MepzH)2}2]] | readily soluble | readily soluble |  | soluble |  |  | soluble | soluble |  |  |
| Cc1cc[n+]2[n]1[Pt-2]13[n]4c(C)cc[n+]4[Ag-][n]4ccc(C)[n+]4[Pt-2]([n]4c(C)cc[n+]4[Ag-][n]4ccc(C)[n+]41)([n]1c(C)cc[n+]1[Ag-][n]1ccc(C)[n+]13)[n+]1c(C)cc[n]1[Ag-]2 [[Pt2Ag4(μ-3-Mepz)8]] | soluble | soluble |  | slightly soluble |  | slightly soluble | slightly soluble |  |  |  |
| Cc1cc(C)[n]([Pt-2]([n]2nc(C)cc2C)([n+]2[nH]c(C)cc2C)[n+]2[nH]c(C)cc2C)n1.Cc1cc(C)[n]([Pt-2]([n]2nc(C)cc2C)([n+]2[nH]c(C)cc2C)[n+]2[nH]c(C)cc2C)n1 [[{Pt(dmpz)2(dmpzH)2}2]] | extremely highly soluble | extremely highly soluble | not soluble | highly soluble | not soluble | moderately soluble | highly soluble | moderately soluble |  | not soluble |
| c1ccc(-c2cc(-c3ccccc3)[n+]3[n]2[Pt-2]24[Cl+][Ag-][n]5c(-c6ccccc6)cc(-c6ccccc6)[n+]5[Pt-2]([Cl+][Ag-][n]5c(-c6ccccc6)cc(-c6ccccc6)[n+]52)([n]2c(-c5ccccc5)cc(-c5ccccc5)[n+]2[Ag-][n]2c(-c5ccccc5)cc(-c5ccccc5)[n+]24)[n+]2c(-c4ccccc4)cc(-c4ccccc4)[n]2[Ag-]3)cc1 [[Pt2Ag4(μ-Cl)2(μ-dppz)6]] | readily soluble | readily soluble |  | soluble |  | slightly soluble | soluble |  |  |  |
